# Assay results as given in ChEMBL document CHEMBL1250518, “Nonsteroidal dissociated glucocorticoid agonists containing azaindoles as steroid A-ring mimetics” (J Med Chem, 2010).
# The source made the active and inactive calls. The calls are words filed in the database; no cut-off is given here.
# How the values were obtained:
# Glucocorticoid receptor [1] = molecular target: T1, Glucocorticoid receptor (Homo sapiens, UniProt P04150); assay: Transactivation activity at glucocorticoid receptor in human HeLa cells transfected with luciferase gene linked to MMTV promoter by luciferase assay; format: cell-based
# T1 sequence (P04150 whole entry): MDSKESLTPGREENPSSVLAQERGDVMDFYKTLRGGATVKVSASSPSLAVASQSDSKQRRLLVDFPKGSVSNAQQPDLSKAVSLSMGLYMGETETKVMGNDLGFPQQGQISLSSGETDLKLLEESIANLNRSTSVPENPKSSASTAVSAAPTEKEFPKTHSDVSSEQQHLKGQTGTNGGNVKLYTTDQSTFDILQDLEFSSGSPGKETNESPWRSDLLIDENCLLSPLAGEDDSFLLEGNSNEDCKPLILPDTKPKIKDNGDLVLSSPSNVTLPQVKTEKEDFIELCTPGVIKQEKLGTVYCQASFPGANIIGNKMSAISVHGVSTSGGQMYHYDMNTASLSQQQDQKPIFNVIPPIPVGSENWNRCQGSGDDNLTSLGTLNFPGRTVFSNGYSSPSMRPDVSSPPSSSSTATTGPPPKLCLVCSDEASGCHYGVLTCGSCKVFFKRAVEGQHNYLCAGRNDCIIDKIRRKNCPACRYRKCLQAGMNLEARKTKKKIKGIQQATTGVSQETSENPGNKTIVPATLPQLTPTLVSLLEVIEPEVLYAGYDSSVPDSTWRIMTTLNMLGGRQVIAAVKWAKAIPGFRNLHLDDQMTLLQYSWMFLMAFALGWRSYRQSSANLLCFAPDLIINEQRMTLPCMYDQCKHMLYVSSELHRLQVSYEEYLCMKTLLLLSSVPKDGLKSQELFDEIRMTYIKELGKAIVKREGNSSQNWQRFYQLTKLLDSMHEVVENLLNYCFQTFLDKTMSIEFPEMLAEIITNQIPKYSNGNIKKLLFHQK
# Mus musculus [2] = assay: Antiinflammatory effect in collagen and Freund's complete adjuvant-induced B10.RIII mouse arthritis model assessed as inhibition of disease progression administered as po qd for 5 weeks; format: functional; settings: 840 h
# Mus musculus [3] = assay: Antiinflammatory effect in collagen and Freund's complete adjuvant-induced B10.RIII mouse arthritis model assessed as inhibition of disease progression at 100 mg/kg, po qd for 5 weeks; format: functional, organism-based; design: dose 100 mg/kg
# [4] = Clearance in Sprague-Dawley rat at 2 mg/kg, iv; format: ADME, organism-based; design: dose 2 mg/kg, route intravenous; settings: in vivo
# Mus musculus [5] = assay: Antiinflammatory activity in po dosed BALB/c mouse assessed as reduction of LPS-induced plasma TNFalpha level administered 1 hr before LPS challenge by ELISA; format: functional
# [6] = Half life in Sprague-Dawley rat at 2 mg/kg, iv; format: ADME, organism-based; design: dose 2 mg/kg, route intravenous; settings: in vivo
# Mus musculus [7] = assay: Toxicity in B10.RIII mouse assessed as increase of serum insulin level at 100 mg/kg, po qd for 5 weeks; format: organism-based; design: dose 100 mg/kg, route oral; settings: in vivo, 840 h
# Glucocorticoid receptor [8] = molecular target: T1, Glucocorticoid receptor; assay: Transactivation activity at glucocorticoid receptor in HFF assessed as induction of aromatase activity after 18 to 24 hrs by ELISA; format: cell-based
# Glucocorticoid receptor [9] = molecular target: T1, Glucocorticoid receptor; assay: Binding affinity to glucocorticoid receptor expressed in baculovirus-infected insect cells using tetramethylrhodamine labeled Dexamethasone by fluorescence polarization microplate assay
# [10] = Oral bioavailability in Sprague-Dawley rat at 30 mg/kg; format: ADME, organism-based; settings: Sprague-Dawley, in vivo
# Mus musculus [11] = assay: Toxicity in B10.RIII mouse assessed as increase of body fat content at 100 mg/kg, po qd for 5 weeks; format: organism-based; design: dose 100 mg/kg, route oral; settings: in vivo, 840 h
# [12] = Cmax in Sprague-Dawley rat at 30 mg/kg, po; format: ADME, organism-based; design: dose 30 mg/kg, route oral; settings: in vivo
# [13] = molecular target: T2, Mineralocorticoid receptor (Homo sapiens, UniProt P08235); assay: Binding affinity to mineralocorticoid receptor expressed in baculovirus-infected insect cells using tetramethylrhodamine labeled Dexamethasone by fluorescence polarization microplate assay
# T2 sequence (P08235 whole entry): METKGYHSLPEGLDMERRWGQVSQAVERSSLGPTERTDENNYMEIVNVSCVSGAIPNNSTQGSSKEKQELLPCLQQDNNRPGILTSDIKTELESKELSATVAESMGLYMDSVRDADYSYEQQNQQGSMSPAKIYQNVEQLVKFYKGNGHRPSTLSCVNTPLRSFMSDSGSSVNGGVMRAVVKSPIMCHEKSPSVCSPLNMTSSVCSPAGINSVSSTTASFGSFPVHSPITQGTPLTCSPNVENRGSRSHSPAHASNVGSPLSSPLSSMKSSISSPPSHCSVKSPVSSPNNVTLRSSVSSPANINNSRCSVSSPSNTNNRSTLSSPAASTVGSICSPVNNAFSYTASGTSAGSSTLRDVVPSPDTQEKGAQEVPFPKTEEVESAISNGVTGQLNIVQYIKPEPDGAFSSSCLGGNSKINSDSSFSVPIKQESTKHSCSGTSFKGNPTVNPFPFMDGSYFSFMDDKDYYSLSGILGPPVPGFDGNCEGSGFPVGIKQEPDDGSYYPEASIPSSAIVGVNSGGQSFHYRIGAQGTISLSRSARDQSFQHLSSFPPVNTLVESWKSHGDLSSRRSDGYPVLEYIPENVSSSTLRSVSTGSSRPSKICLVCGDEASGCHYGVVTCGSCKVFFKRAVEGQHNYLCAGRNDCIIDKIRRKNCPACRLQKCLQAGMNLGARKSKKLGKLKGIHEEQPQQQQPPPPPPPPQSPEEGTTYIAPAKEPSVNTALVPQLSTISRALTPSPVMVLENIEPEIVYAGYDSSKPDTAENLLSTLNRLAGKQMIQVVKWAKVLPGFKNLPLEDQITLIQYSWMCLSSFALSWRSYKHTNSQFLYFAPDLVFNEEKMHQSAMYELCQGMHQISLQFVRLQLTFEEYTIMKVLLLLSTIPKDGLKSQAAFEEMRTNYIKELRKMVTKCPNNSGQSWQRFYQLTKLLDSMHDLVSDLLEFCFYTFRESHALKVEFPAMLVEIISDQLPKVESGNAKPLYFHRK
# Glucocorticoid receptor [14] = molecular target: T1, Glucocorticoid receptor; assay: Transrepression activity at glucocorticoid receptor in HFF assessed as inhibition of IL-1-induced IL-6 production after 18 to 24 hrs by ELISA; format: cell-based
# [15] = Volume of distribution at steady state in Sprague-Dawley rat at 2 mg/kg, iv; format: ADME, organism-based; design: dose 2 mg/kg, route intravenous; settings: in vivo, read-out: Vdss
# [16] = AUC (infinity) in Sprague-Dawley rat at 30 mg/kg, po; format: ADME, organism-based, Plasma; design: time infinity, dose 30 mg/kg, route oral; settings: Sprague-Dawley, plasma
# Progesterone receptor = molecular target: T3, Progesterone receptor (Homo sapiens, UniProt P06401); assay: Binding affinity to progesterone receptor expressed in baculovirus-infected insect cells using tetramethylrhodamine labeled RU-486 by fluorescence polarization microplate assay
# T3 sequence (P06401 whole entry): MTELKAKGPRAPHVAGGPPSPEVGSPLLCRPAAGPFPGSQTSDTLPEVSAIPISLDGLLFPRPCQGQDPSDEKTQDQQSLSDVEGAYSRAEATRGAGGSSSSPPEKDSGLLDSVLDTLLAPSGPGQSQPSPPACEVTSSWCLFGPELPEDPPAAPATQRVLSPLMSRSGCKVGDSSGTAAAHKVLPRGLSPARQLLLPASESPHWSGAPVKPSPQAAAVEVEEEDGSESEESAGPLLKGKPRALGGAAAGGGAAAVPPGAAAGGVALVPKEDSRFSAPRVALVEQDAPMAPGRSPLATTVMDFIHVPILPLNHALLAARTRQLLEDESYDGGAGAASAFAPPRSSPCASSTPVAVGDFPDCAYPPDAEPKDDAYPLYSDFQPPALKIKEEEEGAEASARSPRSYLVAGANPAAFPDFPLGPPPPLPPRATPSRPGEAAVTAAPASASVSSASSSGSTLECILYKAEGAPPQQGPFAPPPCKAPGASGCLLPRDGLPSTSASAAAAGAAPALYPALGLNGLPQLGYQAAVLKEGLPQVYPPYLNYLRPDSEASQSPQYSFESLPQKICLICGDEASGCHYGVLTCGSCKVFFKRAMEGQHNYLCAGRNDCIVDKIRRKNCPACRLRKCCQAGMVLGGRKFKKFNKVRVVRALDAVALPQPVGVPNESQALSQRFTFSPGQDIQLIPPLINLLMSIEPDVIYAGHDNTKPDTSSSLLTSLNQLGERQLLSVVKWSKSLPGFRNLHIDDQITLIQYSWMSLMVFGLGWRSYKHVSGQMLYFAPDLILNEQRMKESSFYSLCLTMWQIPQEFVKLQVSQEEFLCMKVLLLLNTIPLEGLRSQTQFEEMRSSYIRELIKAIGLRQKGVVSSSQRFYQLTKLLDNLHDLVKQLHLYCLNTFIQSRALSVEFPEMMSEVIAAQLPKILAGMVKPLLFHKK
# Mus musculus [17] = assay: Toxicity in collagen and Freund's complete adjuvant-induced B10.RIII mouse arthritis model assessed as increase of serum insulin level at 30 mg/kg, po qd for 5 weeks; format: organism-based; design: dose 30 mg/kg, route oral; settings: in vivo, 840 h
# Mus musculus [18] = assay: Toxicity in B10.RIII mouse assessed as increase of triglyceride level at 30 mg/kg, po qd for 5 weeks; format: organism-based; design: dose 30 mg/kg, route oral; settings: in vivo, 840 h
# Mus musculus [19] = assay: Toxicity in collagen and Freund's complete adjuvant-induced B10.RIII mouse arthritis model assessed as increase of body fat content at 30 mg/kg, po qd for 5 weeks; format: organism-based; design: dose 30 mg/kg, route oral; settings: in vivo, 840 h
# Mus musculus [20] = assay: Antiinflammatory effect in collagen and Freund's complete adjuvant-induced B10.RIII mouse arthritis model assessed as inhibition of disease progression at 30 mg/kg, po qd for 5 weeks; format: functional; settings: 840 h
# Mus musculus [21] = assay: Toxicity in collagen and Freund's complete adjuvant-induced B10.RIII mouse arthritis model assessed as increase of free fatty acids level at 30 mg/kg, po qd for 5 weeks; format: organism-based; design: dose 30 mg/kg, route oral; settings: in vivo, 840 h
# Mus musculus [22] = assay: Toxicity in B10.RIII mouse assessed as increase of body fat content at 30 mg/kg, po qd for 5 weeks; format: organism-based; design: dose 30 mg/kg, route oral; settings: in vivo, 840 h
# Mus musculus [23] = assay: Toxicity in B10.RIII mouse assessed as increase of serum insulin level at 30 mg/kg, po qd for 5 weeks; format: organism-based; design: dose 30 mg/kg, route oral; settings: in vivo, 840 h
# Mus musculus [24] = assay: Toxicity in collagen and Freund's complete adjuvant-induced B10.RIII mouse arthritis model assessed as increase of triglyceride level at 30 mg/kg, po qd for 5 weeks; format: organism-based; design: dose 30 mg/kg, route oral; settings: in vivo, 840 h
# [25] = Tmax in Sprague-Dawley rat at 30 mg/kg, po; format: ADME, organism-based; design: dose 30 mg/kg, route oral; settings: in vivo
# [26] = Clearance in Sprague-Dawley rat at 5 mg/kg, iv; format: ADME, organism-based; design: dose 5 mg/kg, route intravenous; settings: in vivo
# [27] = Half life in Sprague-Dawley rat at 5 mg/kg, iv; format: ADME, organism-based; design: dose 5 mg/kg, route intravenous; settings: in vivo
# [28] = Volume of distribution at steady state in Sprague-Dawley rat at 5 mg/kg, iv; format: ADME, organism-based; design: dose 5 mg/kg, route intravenous; settings: in vivo, read-out: Vdss
IC50 (Glucocorticoid receptor [1]) [nM],EC50 (Glucocorticoid receptor [8]) [nM],IC50 (Glucocorticoid receptor [9]) [nM],bioavailability [10] [%],Cmax [12] [ng/mL],IC50 [13] [nM],IC50 (Glucocorticoid receptor [14]) [nM],AUC(0-inf) [16] [ng·h/mL],IC50 (Progesterone receptor) [nM],SMILES,ED50 (Mus musculus [2]) [mg/kg],also measured
> 2000,> 2000,8,97,422,> 2000,20,5930,> 2000,COc1ccc(-c2cncnc2)cc1C(C)(C)C[C@@](O)(Cc1cc2ccncc2[nH]1)C(F)(F)F,30,Activity (Mus musculus [3]): Active; clearance [4]: 83 mL/min/kg; ED50 (Mus musculus [5]): < 1 mg/kg; half-life [6]: 1 h; Activity (Mus musculus [7]): Non-toxic; Activity (Mus musculus [11]): Non-toxic; Vd [15]: 6.6 L/kg
,,,,,44,,,,C[C@]12C=CC(=O)C=C1CC[C@@H]1[C@@H]2[C@@H](O)C[C@@]2(C)[C@H]1CC[C@]2(O)C(=O)CO [PREDNISOLONE],10,Activity (Mus musculus [17]): Non-toxic; Activity (Mus musculus [18]): Toxic; Activity (Mus musculus [19]): Non-toxic; inhibition in vivo at 30 mg/kg (Mus musculus [20]): 77%; Activity (Mus musculus [21]): Non-toxic; Activity (Mus musculus [22]): Toxic; Activity (Mus musculus [23]): Toxic; Activity (Mus musculus [24]): Toxic
20,10,1.4,21,427,380,6,1740,1150,COc1ccc(F)cc1C(C)(C)C[C@@](O)(Cc1cc2ccncc2[nH]1)C(F)(F)F,,Tmax [25]: 2 h; clearance [26]: 61 mL/min/kg; half-life [27]: 1.7 h; Vd [28]: 8.7 L/kg
